Data set [1] concerns Saos2-CMV cells (p53-null, vector-only control). Description: Cellular growth studies on p53-null Saos2 control cells. Type of data set: cell-based, human. Here is the method:
(§1) Cellular growth studies were performed on Saos-2 cells, derived from a human osteosarcoma cancer cell line, according to the method described in Example 44. The cells had either no p53 (null) or mutant (mt) p53 at residues 175 and/or 281 (R175H and […], respectively). Selective arrest of mutant cells indicates good anticancer activity.
Cellular growth studies were performed on Saos2 cells. Human osteosarcoma Saos2 cells are devoid of endogenous p53 due to biallelic deletion of the p53 gene. Previously, a series of Saos2 cell lines were engineered to express several human p53 mutants that are commonly found in human cancers. The derivative Saos2 cell lines used in the present study included the following: 1) Saos2-CMV, which is the vector-only control cell line that is negative for p53 protein. 2) Saos2-175, which expresses the human mutant p53-R175H protein. […]
The cells were grown at 37° C. in Dulbecco's modified Eagle's medium (Cambrex, East Rutherford, N.J.) supplemented with 10% fetal bovine serum (Hyclone, Logan, Utah) under 5% CO2. […] The cells were microscopically analyzed during the course of treatment and the overall effectiveness of the drug treatment on cell growth and survival was assessed on day 7 by staining the cells with Giemsa Stain GS500 (SIGMA, St. Louis, Mo.). […]

In data set [2] the test system is Saos2 cell lines expressing mutant p53 (Saos2-175, Saos2-281). Briefly: Cellular growth studies on Saos-2 cells expressing mutant p53. The settings on record: for selective growth arrest/killing of cells expressing mutant p53 (in words): Saos-2 cells with mutant p53 versus p53-null cells. Type of data set: cell-based, human. Here is the method: as §1
Cellular growth studies were performed on Saos2 cells. Human osteosarcoma Saos2 cells are devoid of endogenous p53 due to biallelic deletion of the p53 gene. Previously, a series of Saos2 cell lines were engineered to express several human p53 mutants that are commonly found in human cancers. The derivative Saos2 cell lines used in the present study included the following: 1) Saos2-CMV, which is the vector-only control cell line that is negative for p53 protein. 2) Saos2-175, which expresses the human mutant p53-R175H protein. The 175H substitution disrupts the structure of the protein resulting in the loss of DNA binding and tumor suppressor function. This mutation is found in ˜6% of all cancers of diverse tumor types. 3) Saos2-273, which expressed the human mutant p53-R273H protein. The 273H substitution eliminates a DNA contact point resulting in the loss of DNA binding and tumor suppressor function. This mutation represents the second most common hot spot mutation and is found in nearly 8% of all cancers. 4) Saos2-281, which expresses the human mutant p53-D281G protein. This mutation disrupts a stabilizing salt bridge resulting in the loss of DNA binding and tumor suppressor function.
The cells were grown at 37° C. in Dulbecco's modified Eagle's medium (Cambrex, East Rutherford, N.J.) supplemented with 10% fetal bovine serum (Hyclone, Logan, Utah) under 5% CO2. The cells were plated at 1×10^6 per 10 cm tissue culture plates and treated with escalating doses of the indicated compounds (Table 1) for varying lengths of time. Routine concentrations of the synthesized compounds ranged from 1-75 μM. After 72-96 hours, the cells were refed with fresh medium containing the appropriate concentration of the compound. In addition, parallel cultures were prepared and maintained under identical conditions without drug treatment as negative controls. The cells were microscopically analyzed during the course of treatment and the overall effectiveness of the drug treatment on cell growth and survival was assessed on day 7 by staining the cells with Giemsa Stain GS500 (SIGMA, St. Louis, Mo.). Prima-1 was included in all experiments for comparison purposes. […] The few Saos2 mutant p53 cells remaining after treatment with compound 7 were quite large and flat, reminiscent of a differentiated cell.

“Also recorded” adds a separate entry of the source.

With `O=C1C2CCN(CC2)C1(CO)CO` [PRIMA-1, reference compound], the “toxic to p53-null cells at concentration” value in data set [1] (p53-null Saos-2 cells) is 75 µM. On to `CNC(COC(C)=O)C(=O)c1ccccc1.Cl` (stereo not shown) [Compound 16, 2-(Methylamino)-3-oxo-3-phenylpropyl acetate hydrochloride], for which the “selective growth arrest/killing of cells expressing mutant p53 (in words)” value (“selective growth arrest/killing” below) in data set [2] (acetate hydrochloride) is “the desired activity is lost; also recorded: eliminates the desired activity”. For `CC(=O)OCC(N)C(=O)c1ccccc1.Cl` (racemic) [Compound 7, 3-Acetoxy-1-oxo-1-phenylpropan-2-aminium chloride], the “selective growth arrest/killing” value in data set [2] is “activity at lower concentrations, as compared to PRIMA-1; also recorded: efficiently and selectively inhibited the growth of the Saos2 cell lines expressing mutant p53; also recorded: particularly effective at selectively killing cells expressing R175H and R281G p53 mutants at lower concentrations than PRIMA-1”. Besides, in data set [1] (Saos2-CMV, assessed on day 7 by Giemsa stain), the “effect on growth of CMV-only cells which lack p53 protein” value is “no effect”. As to `CC(=O)OC[C@@H](N)C(=O)c1ccccc1.Cl` [Compound 8, (R)-3-Acetoxy-1-oxo-1-phenylpropan-2-aminium chloride], the “selective growth arrest/killing” value in data set [2] is recorded as “improved activity over (±)-7”. Take `COC(=O)C(N)COC(C)=O.Cl` (stereo not shown) [Compound 14, 3-Acetoxy-1-methoxy-1-oxopropan-2-aminium chloride]: the “selective growth arrest/killing” value in data set [2] is listed as “the desired activity is lost”. `CC(=O)OCC(N)C(=O)N1CCOCC1.Cl` (stereo not shown) [Compound 15, 3-Acetoxy-1-morpholino-1-oxopropan-2-aminium chloride]: the “selective growth arrest/killing” value in data set [2] is reported as “the desired activity is lost”. `CC(=O)OCC(C)(N)C(=O)c1ccccc1.Cl` (stereo not shown) [Compound 17, 2-Amino-2-methyl-3-oxo-3-phenylpropyl acetate hydrochloride]: the “selective growth arrest/killing” value in data set [2] is “eliminates the desired activity”.

The term minimal effective concentration denotes the smallest amount tested that counted as effective. Take `CC(=O)OCC(N)(COC(C)=O)C(=O)c1ccccc1.Cl` [Compound 4, 3-Acetoxy-2-(acetoxymethyl)-1-oxo-1-phenylpropan-2-aminium chloride]: in data set [2] (Homo sapiens, 168 h, Mutant: 281, Saos-2 cells, concentration at which active, doses 1-75 μM, cell growth and survival assessed on day 7 by Giemsa stain), the minimal effective concentration amounted to 10 µM. The “selective growth arrest/killing” value in data set [2] is recorded as “activity at lower concentrations, as compared to PRIMA-1; also recorded: showed selectivity for R281G mutants”.

These data come from patent publication US7829304B2, “Compounds and related methods for mutant p53 reactivation” (Northwestern University, priority 2003, dated 2010).
